Measurements: PubChem BioAssay (NCI)
Values joined by “and” are separate entries in the source; they are usually repeats but may differ in a detail not shown here. Equal values may be shown once.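 Cells were grown in 96-well plates and exposed to each compound for 48 hours at five concentrations; endpoints were interpolated linearly between bracketing concentrations, or set to the highest concentration if not reached. At the GI50, growth is halved. The concentration for full growth arrest is given as TGI.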

Legend:
Experiment in all cases: inhibition of tumour cell growth, NCI panel, 48 h
[1] = system: HS 578T breast
[2] = system: HT29 colon
[3] = system: 786-0 renal
[4] = system: IGROV1 ovarian
[5] = system: OVCAR-4 ovarian
[6] = system: CAKI-1 renal
[7] = system: A498 renal
[8] = system: BT-549 breast
[9] = system: SF-268 CNS
[10] = system: MCF7 breast

Structure (SMILES) | GI50 [1] [µM] | TGI [1] [µM] | GI50 [2] [µM] | TGI [2] | GI50 [3] [µM] | TGI [3] [µM] | GI50 [4] [µM] | TGI [4] [µM] | GI50 [5] [µM] | TGI [5] [µM] | GI50 [6] [µM] | TGI [6] | GI50 [7] [µM] | TGI [7] [µM] | GI50 [8] [µM] | TGI [8] [µM] | GI50 [9] [µM] | TGI [9] [µM] | GI50 [10] [µM] | TGI [10] [µM]
Cc1nc2sc(C(=O)Nc3cccc(Br)c3C)c(N)c2cc1C(O)c1ccccc1 (stereo unspecified) | 0.0345 | 6.04 | 0.0374 | 12.7 µM | 0.0601 | 10.1 | 0.0487 | 13.2 | 0.147 | > 70.5 | 0.0601 | 6.63 µM | 0.0181 | 0.058 | 0.044 | 2.93 | 0.146 | 13 | 0.0373 | 13.1
COc1cccc2c1C(=O)c1c(O)c3c(c(O)c1C2=O)C[C@@](O)(C(=O)CO)CC3OC1CC(N)C(OC2CCCCO2)C(C)O1 (stereo partly specified) | – | 1.11 | 0.0381 | 1.81 µM and 17.1 µM | 0.0131 | – | 0.0158 | – | 1.46 | – | 0.523 | 5.38 µM and 2.76 µM | – | 1.16 | – | 0.481 | 0.00705 | – | – | 1.08
CC1=CC(=O)N(c2cccc3c(N4C(=O)C=C(C)C4=O)cccc23)C1=O | 18.6 | > 100 | 2.73 | 8.1 µM | 7.5 | 23.5 | 3.55 | 16.2 | 5.18 | 16.9 | 3.61 | 13.8 µM | 26.6 | 56.5 | 6.44 | 19.5 | 6.37 | 23.8 | 3.95 | 23.5
C/C(=N\NC(=O)c1ccncc1)c1sc(-n2nc(-c3ccccc3)cc2-c2ccccc2)nc1C | – | > 100 | – | > 100 µM | – | > 31.6 | – | > 100 | – | > 31.6 | – | > 100 µM | – | > 100 | – | > 31.6 | – | > 100 | – | > 31.6
O=C(Nc1ccncc1)C(=O)c1cn(S(=O)(=O)c2cccc(Cl)c2)c2ccccc12 | 77.1 | > 100 | 3.62 | > 100 µM | 7.94 | 43.6 | 24.1 | > 100 | 7.51 | > 100 | 3.38 | 39.9 µM | 25.4 | > 100 | 5.85 | 38.3 | 8.36 | > 100 | 3.63 | > 100
N#C/C(=C\c1cc(O)c(O)c(O)c1)C(N)=O | – | > 100 | – | > 100 µM | – | > 100 | – | > 100 | – | > 100 | – | > 100 µM | – | > 100 | – | > 100 | – | > 100 | – | > 56
C/C=C(\N=C=S)C(=O)OC1C(COC(C)=O)OC([C@]2(O)CC(=O)C(=N)C(C(=O)O)=C2O)C(O)C1OC1CC(OC)C(O)([C@@H](C)OC(=O)[C@@H](C)CC)C(C)O1 (stereo partly specified) | – | > 96.1 | – | 23.6 µM | – | 26.6 | – | 36 | – | 19.4 | – | 35 µM | – | 62.5 | – | 16.5 | – | 23.2 | – | 38.4
NS(=O)(=O)c1ccc(N=Nc2ccc[nH]c2=O)cc1 | – | > 100 | – | > 100 µM | – | > 100 | – | > 100 | – | > 100 | – | > 100 µM | – | > 100 | – | > 100 | – | > 100 | – | > 100
CC1(C)C(N2CCOCC2)CS1(=O)=O (stereo unspecified) | – | > 10 | – | > 10 µM | – | > 10 | – | > 10 | – | > 10 | – | > 10 µM | – | > 10 | – | > 10 | – | > 10 | – | > 10
C=C1c2nc3ccccc3n2C=C(c2cccc(Cl)c2)N1Cc1ccc(OC)cc1 | 0.565 | > 100 | 7.15 | 53.2 µM | 3.08 | 17.3 | 0.471 | 15.8 | 1.83 | > 100 | – | 4.71 µM | 9.33 | 60.4 | 1.7 | > 100 | 1.05 | > 57.2 | 0.331 | > 39.4
COc1ccc2c(c1)C(=Nc1ccc(F)c(Cl)c1)c1c-2c(Nc2ccc(F)c(Cl)c2)nc2ccccc12 | 35.3 | 98.5 | > 100 | > 100 µM | 14.9 | 42.8 | 30.1 | > 100 | 24.8 | > 75.7 | > 65.8 | > 100 µM | 28.1 | 86.8 | 23.4 | > 74.4 | 29.7 | > 100 | 56.2 | > 100
COc1cc(C(=O)/C=C/c2cc(-c3ccc4c(c3)OCO4)n[nH]2)cc(OC)c1OC | 3.14 | 20.5 | 2.45 | 6.53 µM | 1.84 | 3.46 | 1.99 | 5.72 | 0.885 | 4.24 | 1.99 | 5.65 µM | 1.75 | 4.65 | 2.02 | 5 | 2.45 | 7.64 | 1.06 | 2.88
Cc1ccc(C[As+](c2ccccc2)(c2ccccc2)c2ccccc2)cc1 | 2.19 | > 48.8 | 0.313 | 11.5 µM | 3.15 | > 46.4 | 1.17 | 25.1 | 0.778 | > 100 | 8.85 | 43.9 µM | 0.581 | 5.07 | 0.392 | 8.26 | 1.08 | > 42.2 | 0.621 | 17.2
Nc1[nH]nc2nc(-c3cc(Cl)ccc3Cl)cc(-c3ccc(F)cc3)c12 | 24.1 | 53.7 | 32.5 | > 100 µM | 23.7 | 59.2 | 19 | 48.7 | 39.2 | > 100 | 26.9 | > 100 µM | 20.4 | 42.2 | 14.3 | 31.3 | 18.2 | 43.6 | 11.8 | 37.5
